ChEMBL document CHEMBL3407365, “Pachymodulin, a new functional formyl peptide receptor 2 peptidic ligand isolated from frog skin has Janus-like immunomodulatory capacities” (J Med Chem, 2015)
Values belong to the compound of their own block, whether it stands above or below them. Activity calls are given as the source filed them. No cut-off for these calls is given here.

Assays:
[1] = system: Neutrophil; assay: Induction of […]-induced migration in human neutrophils preincubated at 10 uM after 45 mins by chemotaxis assay; format: functional, cell-based
[2] = target: T1, N-formyl peptide receptor 2 (Homo sapiens) (UniProt P25090); assay: Induction of calcium release in human FPR2 receptor-expressed HEK cell assessed as calcium release through Cav1.2 channel at 10 uM by cytosolic-free calcium assay in presence of 30 uM ATP; format: functional, cell-based; conditions: HEK293
T1 sequence (whole entry): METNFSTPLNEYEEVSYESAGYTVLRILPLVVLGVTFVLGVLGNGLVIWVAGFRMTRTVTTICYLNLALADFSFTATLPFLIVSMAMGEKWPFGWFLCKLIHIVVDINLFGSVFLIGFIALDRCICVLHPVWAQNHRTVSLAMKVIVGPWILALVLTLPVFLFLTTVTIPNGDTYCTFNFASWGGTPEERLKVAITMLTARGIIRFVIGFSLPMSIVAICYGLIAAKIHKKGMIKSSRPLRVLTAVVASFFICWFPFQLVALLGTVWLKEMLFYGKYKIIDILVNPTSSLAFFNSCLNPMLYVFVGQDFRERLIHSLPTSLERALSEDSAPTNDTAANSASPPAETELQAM

[3] = target: T1, N-formyl peptide receptor 2 (Homo sapiens); assay: Induction of calcium release in human FPR2 receptor-expressed HEK cell at 10 uM measured after second challenge by cytosolic-free calcium assay; format: functional, cell-based; conditions: HEK293
[4] = system: Staphylococcus aureus; assay: Antibacterial activity against Staphylococcus aureus ATCC 25923; format: functional
[5] = system: Neutrophil; assay: Induction of ERK1/2-mediated directional migration in mouse neutrophils assessed as fluorescence of calcein at 10 uM after 45 mins by chemotaxis assay in presence of natural compound; format: functional, cell-based
[6] = system: Mus musculus; assay: Induction of leukocyte recruitment in C57BL/6 mouse assessed as increase in number of monocytes in blood at 40 ug, ip tid relative to NaCl treated control; format: functional, organism-based
[7] = system: Neutrophil; assay: Induction of ERK1/2-mediated directional migration in human neutrophils assessed as fluorescence of calcein at 10 uM after 45 mins by chemotaxis assay in presence of pertussis toxin; format: functional, cell-based
[8] = system: Neutrophil; assay: Induction of ERK1/2-mediated directional migration in mouse neutrophils assessed as fluorescence of calcein at 10 uM after 45 mins by chemotaxis assay; format: functional, cell-based
[9] = system: HEK293; assay: Induction of HEK cell migration at 10 uM; format: functional, cell-based; conditions: Homo sapiens
[10] = system: Mus musculus; assay: Induction of leukocyte recruitment in C57BL/6 mouse assessed as increase in number of monocytes in peritoneal cavity at 40 ug, ip tid 4 hr before pretreated with 3% thioglycollate relative to NaCl treated control; format: functional, organism-based
[11] = system: Neutrophil; assay: Induction of ERK1/2-mediated directional migration in human neutrophils assessed as enzyme phosphorylation at 10 uM by chemotaxis assay; format: functional, cell-based; conditions: TDE = time-dependent effect
[12] = system: Neutrophil; assay: Induction of ERK1/2-mediated directional migration in human neutrophils assessed as fluorescence of calcein at 10 uM after 45 mins by chemotaxis assay in presence of SB202190 MAPK inhibitor; format: functional, cell-based
[13] = system: Monocyte; assay: Induction of ERK1/2-mediated directional migration in mouse monocytes assessed as fluorescence of calcein at 10 uM after 45 mins by chemotaxis assay; format: functional, cell-based
[14] = system: Mus musculus; assay: Induction of leukocyte recruitment in C57BL/6 mouse assessed as increase in number of monocytes in blood at 40 ug, ip tid 4 hr before pretreated with 3% thioglycollate relative to NaCl treated control; format: functional, organism-based
[15] = system: Neutrophil; assay: Induction of ERK1/2-mediated directional migration in human neutrophils assessed as fluorescence of calcein at 10 uM after 45 mins by chemotaxis assay; format: functional, cell-based
[16] = system: T-cell; assay: Induction of ERK1/2-mediated directional migration in human T cell assessed as fluorescence of calcein at 10 uM after 45 mins by chemotaxis assay; format: functional, cell-based
[17] = system: Escherichia coli; assay: Induction of membrane disruption in Escherichia coli assessed as bacterial leakage by measuring Gal-ONp hydrolysis; format: organism-based
[18] = system: Neutrophil; assay: Induction of ERK1/2-mediated directional migration in human neutrophils assessed as fluorescence of calcein at 10 uM after 45 mins by chemotaxis assay in presence of natural compound; format: functional, cell-based
[19] = target: T2, Formyl peptide receptor-related sequence 1 (Mus musculus) (UniProt O08790); assay: Induction of mouse FPR2 receptor-expressed HEK cell migration at 10 uM; conditions: HEK293
T2 sequence (whole entry): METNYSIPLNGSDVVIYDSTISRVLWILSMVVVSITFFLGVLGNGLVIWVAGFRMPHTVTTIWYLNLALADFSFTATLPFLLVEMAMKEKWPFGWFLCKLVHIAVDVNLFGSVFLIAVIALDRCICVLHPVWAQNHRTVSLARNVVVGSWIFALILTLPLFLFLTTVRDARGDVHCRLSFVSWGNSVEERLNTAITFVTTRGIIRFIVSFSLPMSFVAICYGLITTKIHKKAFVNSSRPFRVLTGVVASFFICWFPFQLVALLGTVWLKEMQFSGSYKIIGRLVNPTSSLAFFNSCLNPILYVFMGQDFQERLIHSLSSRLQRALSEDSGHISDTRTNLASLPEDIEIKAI

[20] = system: Mus musculus; assay: Induction of leukocyte recruitment in C57BL/6 mouse assessed as increase in number of macrophages in peritoneal cavity at 40 ug, ip tid 4 hr before pretreated with 3% thioglycollate relative to NaCl treated control; format: functional, organism-based
[21] = system: Mus musculus; assay: Induction of leukocyte recruitment in C57BL/6 mouse assessed as increase in number of neutrophils in peritoneal cavity at 40 ug, ip tid 4 hr before pretreated with 3% thioglycollate relative to NaCl treated control; format: functional, organism-based
[22] = system: Monocyte; assay: Induction of ERK1/2-mediated directional migration in human monocytes assessed as fluorescence of calcein at 10 uM after 45 mins by chemotaxis assay; format: functional, cell-based
[23] = system: Mus musculus; assay: Induction of leukocyte recruitment in C57BL/6 mouse assessed as increase in number of monocytes in peritoneal cavity at 40 ug, ip tid relative to NaCl treated control; format: functional, organism-based
[24] = target: T1, N-formyl peptide receptor 2 (Homo sapiens); assay: Binding affinity to human FPR2 receptor expressed in HEK cells assessed as heat release at 155 nmol by isothermal titration calorimetry; conditions: HEK293
[25] = system: T-cell; assay: Induction of ERK1/2-mediated directional migration in human T cell assessed as fluorescence of calcein at 10 uM after 45 mins by chemotaxis assay in presence of natural compound; format: functional, cell-based
[26] = target: T1, N-formyl peptide receptor 2 (Homo sapiens); assay: (§1) Induction of calcium release in human FPR2 receptor-expressed HEK cell by cytosolic-free calcium assay; format: functional, cell-based; conditions: HEK293
[27] = target: T3, N-formyl peptide receptor 2 (Homo sapiens, UniProt P25090); assay: as §1; format: functional, cell-based, HEK293
T3 sequence (P25090 whole entry): T1 sequence (whole entry)

[28] = system: Neutrophil; assay: Induction of migration in human neutrophils preincubated at 10 uM after 45 mins by chemotaxis assay in presence of 0.1 uM fMLP; format: functional, cell-based
[29] = system: Escherichia coli; assay: Antibacterial activity against Escherichia coli ATCC 11775; format: functional
[30] = target: T1, N-formyl peptide receptor 2 (Homo sapiens); assay: Induction of human FPR2 receptor-expressed HEK cell migration at 10 uM; conditions: HEK293
[31] = system: Neutrophil; assay: Induction of migration in human neutrophils at 10 uM after 45 mins by chemotaxis assay in presence of preincubation of 10 uM fMLP; format: functional, cell-based
[32] = system: HEK293; assay: Induction of calcium release in HEK cell at 10 uM by cytosolic-free calcium assay; format: functional, cell-based; conditions: Homo sapiens
[33] = system: Neutrophil; assay: Induction of migration in human neutrophils preincubated at 10 uM after 45 mins by chemotaxis assay in presence of 10 uM fMLP; format: functional, cell-based
[34] = system: Neutrophil; assay: Induction of migration in human neutrophils at 10 uM after 45 mins by chemotaxis assay in presence of preincubation of 0.1 uM fMLP; format: functional, cell-based
[35] = Hemolytic activity in fresh rat erythrocytes assessed as optical density after 60 mins; format: ADME, cell-based; conditions: erythrocyte, 1 h
[36] = target: T2, Formyl peptide receptor-related sequence 1 (Mus musculus); assay: (§2) Induction of calcium release in mouse FPR2 receptor-expressed HEK cell by cytosolic-free calcium assay; format: functional; conditions: HEK293
[37] = target: T4, Formyl peptide receptor-related sequence 1 (Mus musculus, UniProt O08790); assay: as §2; format: functional, HEK293
T4 sequence (O08790 whole entry): T2 sequence (whole entry)

[38] = system: Mus musculus; assay: Induction of leukocyte recruitment in C57BL/6 mouse assessed as increase in number of macrophages in blood at 40 ug, ip tid 4 hr before pretreated with 3% thioglycollate relative to NaCl treated control; format: functional, organism-based
[39] = system: Mus musculus; assay: Induction of leukocyte recruitment in C57BL/6 mouse assessed as increase in number of neutrophils in blood at 40 ug, ip tid relative to NaCl treated control; format: functional, organism-based
[40] = system: Monocyte; assay: Induction of ERK1/2-mediated directional migration in mouse monocytes assessed as fluorescence of calcein at 10 uM after 45 mins by chemotaxis assay in presence of natural compound; format: functional, cell-based
[41] = system: Neutrophil; assay: Induction of ERK1/2-mediated directional migration in human neutrophils assessed as fluorescence of calcein at 10 uM after 45 mins by chemotaxis assay in presence of PD98059 MEK1/2 inhibitor; format: functional, cell-based
[42] = system: Mus musculus; assay: Induction of leukocyte recruitment in C57BL/6 mouse assessed as increase in number of neutrophils in blood at 40 ug, ip tid 4 hr before pretreated with 3% thioglycollate relative to NaCl treated control; format: functional, organism-based
[43] = system: Monocyte; assay: Induction of ERK1/2-mediated directional migration in human monocytes assessed as fluorescence of calcein at 10 uM after 45 mins by chemotaxis assay in presence of natural compound; format: functional, cell-based
[44] = system: Mus musculus; assay: Induction of leukocyte recruitment in C57BL/6 mouse assessed as increase in number of neutrophils in peritoneal cavity at 40 ug, ip tid relative to NaCl treated control; format: functional, organism-based

Activity [3]: inactive
Compound: CSCC[C@H](NC=O)C(=O)N[C@@H](CC(C)C)C(=O)N[C@@H](Cc1ccccc1)C(=O)O
Activity [1]: inactive | Activity [2]: Active

Compound: H-SSLSKL-OH
MIC [4]: > 100 µM | Activity [5]: inactive | Activity [6]: Active | Activity [7]: inactive | Activity [8]: Active | Activity [9]: inactive | Activity [10]: inactive | Activity [11]: tde | Activity [12]: inactive | Activity [13]: Active | Activity [2]: Active | Activity [14]: inactive | Activity [15]: Active | Activity [16]: Active | Activity [17]: Non-toxic | Activity [18]: inactive | Activity [19]: Active | Activity [20]: inactive | Activity [21]: inactive | Activity [22]: Active | Activity [23]: Active | Activity [24]: Active | Activity [25]: inactive | Activity [26]: Dose-dependent effect | EC50 [27]: 7.5 µM | Activity [28]: Active | MIC [29]: > 100 µM | Activity [30]: Active | Activity [31]: Active | Activity [32]: inactive | Activity [33]: Active | Activity [34]: inactive | Activity [35]: Non-toxic | Activity [36]: Dose-dependent effect | EC50 [37]: 9 µM | Activity [38]: inactive | Activity [39]: Active | Activity [40]: inactive | Activity [3]: inactive | Activity [41]: inactive | Activity [42]: inactive | Activity [43]: inactive | Activity [44]: Active
